Source: BindingDB's records for PubMed 8437101 (University of Pennsylvania, 1993)
Where a name gives a salt, the structure may show the parent alone.

Biological target: D(3) dopamine receptor (Rattus norvegicus, UniProt P19020)
Sequence (P19020 whole entry): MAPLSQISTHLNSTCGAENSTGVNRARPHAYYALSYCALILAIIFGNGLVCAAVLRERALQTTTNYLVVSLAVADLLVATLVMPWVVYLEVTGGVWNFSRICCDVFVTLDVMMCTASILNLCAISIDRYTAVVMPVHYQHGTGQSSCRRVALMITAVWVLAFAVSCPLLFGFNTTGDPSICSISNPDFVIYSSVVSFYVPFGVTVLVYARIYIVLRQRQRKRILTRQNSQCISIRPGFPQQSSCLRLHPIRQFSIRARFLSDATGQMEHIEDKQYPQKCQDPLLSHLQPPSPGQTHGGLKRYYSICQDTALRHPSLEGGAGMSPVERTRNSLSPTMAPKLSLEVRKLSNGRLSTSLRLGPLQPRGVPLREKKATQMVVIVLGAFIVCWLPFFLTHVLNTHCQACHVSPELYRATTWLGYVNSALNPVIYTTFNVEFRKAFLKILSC

SMILES	Ki [nM]
CN1CCN(C2=Nc3ccccc3Cc3ccccc32)CC1	919
OCCN1CCN(CCCN2c3ccccc3Sc3ccc(C(F)(F)F)cc32)CC1 [2-[4-[3-[2-(trifluoromethyl)phenothiazin-10-yl]propyl]piperazin-1-yl]ethanol;hydrochloride]	0.71
CN1CCN(C2=Nc3cc(F)ccc3Cc3ccccc32)CC1	255
Cc1nc2n(c(=O)c1CCN1CCC(C(=O)c3ccc(F)cc3)CC1)CCS2 [CAS_86487-64-1]	106
CN1CCc2cccc3c2[C@H]1Cc1ccc(O)c(O)c1-3 [APOKYN]	43.9
CCc1cc(Cl)c(OC)c(C(=O)NC[C@@H]2CCCN2CC)c1O [3-Chloro-5-ethyl-N-((S)-1-ethyl-pyrrolidin-2-ylmethyl)-6-hydroxy-2-methoxy-benzamide]	0.23
CCCN[C@@H]1CCc2c(OC)cccc2[C@@H]1C	438
CCCN(CCC)C1C=Cc2c(OC)cccc2C1C (stereo not given) [CAS_5311190]	36.5
O=C(O)c1ccccc1C(=O)Nc1cccc2ccccc12 [NPA,(+)]	0.81
COc1cc(N)c(Cl)cc1C(=O)N[C@@H]1C[C@H]2CCC[C@@H](C1)N2Cc1ccc(F)cc1 [BRL-34778]	0.28
